The nature of data set [1]: Cytotoxicity determination in HepG2.2.15 cells (CCK-8 cell viability). The conditions noted are these: human, 6 days treatment, CCK-8 assay, highest concentration 100 uM. The class given is cell-based. A digest of the protocol:
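Viability measured by CCK-8 absorbance (450 nm, 630 nm reference, 2.5 h at 37° C) after six days of treatment, medium and compound renewed on day 3. Top concentration 100 uM, eight threefold dilutions in triplicate; cells plated at 5,000/well in 2% FBS medium; CC50 derived.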
Background: Formazan colour is commonly taken as a measure of viable cells.

The test system of the next data set is HBV. As to the kind of experiment: Anti-HBV activity in HepG2.2.15 cells (HBV DNA in culture medium by qPCR). It counts as cell-based. Conditions: Hepatitis B virus, HepG2.2.15, 144 h, HepG2.2.15 cells, 6 days treatment, HBV DNA in culture medium quantified by real-time PCR; read-out: EC50. A digest of the protocol:
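Secreted HBV DNA was measured by real-time PCR after 6-day compound exposure of HepG2.2.15 cells (2% FBS, 37 °C, re-dosed after 3 days), giving EC50 from 8-point 1:3 series starting at 10 or 1 uM. Cytotoxicity (CC50) run separately at lower cell density, top 100 uM.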
Background: Quantitative PCR measures a nucleic acid by following its amplification.

Here are results for 23 compounds from patent US20230083012A1, “DIHYDROPYRIMIDINE DERIVATIVES AND USES THEREOF IN THE TREATMENT OF HBV INFECTION OR OF HBV-INDUCED DISEASES” (priority 2019, published 2023).

What is called CC50 is the concentration at which the toxic effect on the cells reaches its halfway point. A low value points to harm at low concentration. By EC50 is commonly meant the concentration at which the effect is half-maximal.

SMILES strings stand for the structures. Where only a bound is given, the exact number is not on record here.

In data set [1], `CCOC(=O)C1=C(CN2CC(F)(F)[C@@H]3C(=O)N(CC(C)(C)C(=O)O)C[C@@H]32)NC(c2nccs2)=N[C@H]1c1cccc(F)c1C` (relative stereo) [Compound 5A, 3-(1-(((S)-5-(ethoxycarbonyl)-6-(3-fluoro-2-methylphenyl)-2-(thiazol-2-yl)-3,6-dihydropyrimidin-4-yl)methyl)-3,3-difluoro-4-oxohexahydropyrrolo[3,4-b]pyrrol-5(1H)-yl)-2,2-dimethylpropanoic acid] registered a CC50 at 6 days of 70400 nM. Moreover, in the data set with HBV, the EC50 amounted to 8.2 nM.
In data set [1], `CCOC(=O)C1=C(CN2CC(F)(F)[C@@H]3CN(S(=O)(=O)CC(C)(C)C(=O)O)C[C@@H]32)NC(c2nccs2)=N[C@H]1c1cccc(F)c1C` (single isomer, unassigned) [Compound 46] gave a CC50 at 6 days of 20900 nM. Besides, the EC50 in the data set on HBV was found to be 39.4 nM.
For `CCOC(=O)C1=C(CN2CC(F)(F)[C@H]3[C@@H]2CCN3C[C@@H](CC)C(=O)O)NC(c2nccs2)=N[C@@H]1c1ccc(F)nc1C` (single isomer, unassigned) [Compound 122A, 2-(((cis)-4-((5-(ethoxycarbonyl)-6-(6-fluoro-2-methylpyridin-3-yl)-2-(thiazol-2-yl)-3,6-dihydropyrimidin-4-yl)methyl)-6,6-difluorohexahydropyrrolo[3,2-b]pyrrol-1(2H)-yl)methyl)butanoic acid], the CC50 at 6 days in data set [1] was above 100000 nM. The EC50 with HBV is 6 nM.
On the same counts, the results for `CCOC(=O)C1=C(CN2CC(F)(F)[C@H]3[C@@H]2CCN3C[C@H](C)C(=O)O)NC(c2nccs2)=N[C@H]1c1cccc(F)c1Cl` (single isomer, unassigned) [Compound 149B] are 34100 nM and 1.9 nM.
`CCOC(=O)C1=C(CN2CC(F)(F)[C@@H]3CN(CC(C)(C)C(=O)O)C[C@@H]32)NC(c2nccs2)=N[C@H]1c1cccc(F)c1Cl` (single isomer, unassigned) [Compound 22B, 3-((cis)-1-((6-(2-chloro-3-fluorophenyl)-5-(ethoxycarbonyl)-2-(thiazol-2-yl)-3,6-dihydropyrimidin-4-yl)methyl)-3,3-difluorohexahydropyrrolo[3,4-b]pyrrol-5(1H)-yl)-2,2-dimethylpropanoic acid] displayed a 50% cytotoxic concentration (CC50) at 6 days in data set [1] of 70400 nM. Further, the EC50 with HBV is 8.9 nM.
For `COC(=O)C1=C(CN2CC(F)(F)[C@H]3[C@@H]2CCN3CCC(C)(C)C(=O)O)NC(c2nccs2)=N[C@H]1c1ccc(F)c(F)c1Cl` (single isomer, unassigned) [Compound 126], in data set [1], the 50% cytotoxic concentration (CC50) at 6 days amounted to 27200 nM. Also, in the data set on HBV, the EC50 stood at 3.4 nM.
Take `CCOC(=O)C1=C(CN2CC(F)(F)[C@H]3CN(CC(C)C(=O)O)C[C@H]32)NC(c2nccs2)=N[C@H]1c1cccc(F)c1C` (single isomer, unassigned) [Compound 15B]: the CC50 at 6 days in data set [1] was above 100000 nM. Besides, in the data set with HBV, the EC50 is 27.2 nM.
`CCOC(=O)C1=C(CN2CC(F)(F)C3C2CCN3CC(C)(C)C(=O)O)NC(c2nccs2)=N[C@H]1c1cccc(F)c1C` (stereo partly drawn) [Compound 1, 3-(4-(((S)-5-(ethoxycarbonyl)-6-(3-fluoro-2-methylphenyl)-2-(thiazol-2-yl)-3,6-dihydropyrimidin-4-yl)methyl)-6,6-difluorohexahydropyrrolo[3,2-b]pyrrol-1(2H)-yl)-2,2-dimethylpropanoic acid] yielded a CC50 at 6 days in data set [1] of 24800 nM. Also, in the data set with HBV, the concentration giving a half-maximal response (EC50) was found to be 10.6 nM.
In the case of `CCOC(=O)C1=C(CN2CC(F)(F)[C@H]3[C@@H]2CN(C(C)=O)N3CCC(C)(C)C(=O)O)NC(c2nccs2)=N[C@H]1c1cccc(F)c1Cl` (single isomer, unassigned) [Compound 81B, 4-((cis)-2-acetyl-4-((6-(2-chloro-3-fluorophenyl)-5-(ethoxycarbonyl)-2-(thiazol-2-yl)-3,6-dihydropyrimidin-4-yl)methyl)-6,6-difluorohexahydropyrrolo[3,2-c]pyrazol-1(2H)-yl)-2,2-dimethylbutanoic acid], half-maximal cytotoxicity in data set [1] (CC50 at 6 days) was put at 35900 nM. The EC50 with HBV came to 13 nM.
On the same counts, the results for `CCOC(=O)C1=C(CN2CC(F)(F)[C@@H]3CN(C(=O)C(C)(C)C(=O)O)C[C@@H]32)NC(c2nccs2)=N[C@H]1c1cccc(F)c1Cl` (single isomer, unassigned) [Compound 207, 3-((cis)-1-((6-(2-chloro-3-fluorophenyl)-5-(ethoxycarbonyl)-2-(thiazol-2-yl)-3,6-dihydropyrimidin-4-yl)methyl)-3,3-difluorohexahydropyrrolo[3,4-b]pyrrol-5(1H)-yl)-2,2-dimethyl-3-oxopropanoic acid] are above 50000 nM and 59 nM.
Regarding `COC(=O)C1=C(CN2CC[C@]3(F)C(=O)N(CC(C)(C)C(=O)O)C[C@H]23)NC(c2nccs2)=N[C@H]1c1ccc(F)c(F)c1Cl` (single isomer, unassigned) [Compound 209A, 3-((cis)-1-((6-(2-chloro-3,4-difluorophenyl)-5-(methoxycarbonyl)-2-(thiazol-2-yl)-3,6-dihydropyrimidin-4-yl)methyl)-3a-fluoro-4-oxohexahydropyrrolo[3,4-b]pyrrol-5(1H)-yl)-2,2-dimethylpropanoic acid], the CC50 at 6 days in data set [1] is 23300 nM. In addition, the concentration giving a half-maximal response (EC50) in the data set on HBV is 19.1 nM.
As for `CCOC(=O)C1=C(CN2CC(F)(F)[C@H]3[C@@H]2CCN3CCC(C)(C)C(=O)O)NC(c2nccs2)=N[C@@H]1c1ccc(F)c(F)c1F` (single isomer, unassigned) [Compound 140, (cis)-4-(4-((5-(ethoxycarbonyl)-2-(thiazol-2-yl)-6-(2,3,4-trifluorophenyl)-3,6-dihydropyrimidin-4-yl)methyl)-6,6-difluorohexahydropyrrolo[3,2-b]pyrrol-1(2H)-yl)-2,2-dimethylbutanoic acid], it took 36700 nM to reach half-maximal cytotoxicity in data set [1] (CC50 at 6 days). Besides, the EC50 in the data set with HBV is 7 nM.
Take `CCOC(=O)C1=C(CN2CC(F)(F)[C@H]3CN(C(C)C(=O)O)C[C@H]32)NC(c2nccs2)=N[C@H]1c1cccc(F)c1C` (single isomer, unassigned) [Compound 14B]: in data set [1], the CC50 at 6 days is 67900 nM. For the same compound, the concentration for a half-maximal effect (EC50) with HBV came out at 102 nM.
Compound `CCOC(=O)C1=C(CN2CC(F)(F)[C@@H]3CN(C[C@H](CC)C(=O)O)C(=O)[C@@H]32)NC(c2nccs2)=N[C@H]1c1cccc(F)c1C` (single isomer, unassigned) [Compound 183B] gave a CC50 at 6 days in data set [1] of 50200 nM. Besides, the EC50 with HBV is 6.4 nM.
In the same order, the values of `CCOC(=O)C1=C(CN2CC(F)(F)[C@@H]3C(=O)N([C@H]4CC[C@@H](C(=O)O)CC4)C[C@@H]32)NC(c2nccs2)=N[C@H]1c1cccc(F)c1C` (single isomer, unassigned) [Compound 44A] are above 100000 nM and 56.7 nM.
In data set [1], `CCOC(=O)C1=C(CN2CC(F)(F)C3[C@@H]2CCN3[C@H]2C[C@](C)(C(=O)O)C2)NC(c2nccs2)=N[C@H]1c1cccc(F)c1C` (single isomer, unassigned) [Compound 112A] registered a CC50 at 6 days of 28700 nM. The EC50 in the data set on HBV came to 4.6 nM.
`CCOC(=O)C1=C(CN2CC(F)(F)C3C2CCN3CC(=O)O)NC(c2nccs2)=N[C@H]1c1cccc(F)c1C` (stereo in doubt) [Compound 6, 2-((cis)-4-(((S)-5-(ethoxycarbonyl)-6-(3-fluoro-2-methylphenyl)-2-(thiazol-2-yl)-3,6-dihydropyrimidin-4-yl)methyl)-6,6-difluorohexahydropyrrolo-[3,2-b]pyrrol-1(2H)-yl)acetic acid]: in data set [1], the CC50 at 6 days stood at 37200 nM. For the same compound, the EC50 with HBV came to 10.4 nM.
Regarding `COC(=O)C1=C(CN2CC(F)(F)[C@H]3[C@@H]2CN(C(C)=O)N3CCC(C)(C)C(=O)O)NC(c2nccs2)=N[C@H]1c1ccc(F)c(F)c1Cl` (single isomer, unassigned) [Compound 79B, 4-((cis)-2-acetyl-4-((6-(2-chloro-3,4-difluorophenyl)-5-(methoxycarbonyl)-2-(thiazol-2-yl)-3,6-dihydropyrimidin-4-yl)methyl)-6,6-difluorohexahydropyrrolo[3,2-c]pyrazol-1(2H)-yl)-2,2-dimethylbutanoic acid], the half-maximal cytotoxic concentration (CC50) at 6 days in data set [1] is 54900 nM. In addition, the EC50 in the data set on HBV is 27 nM.
Consider `CCCOC(=O)C1=C(CN2CC(F)(F)[C@H]3[C@@H]2CCN3CCC(C)(C)C(=O)O)NC(c2nccs2)=N[C@H]1c1cccc(F)c1C` (single isomer, unassigned) [Compound 151], for which the midpoint of cytotoxicity in data set [1], the CC50 at 6 days, lay at 9300 nM. In the data set with HBV, the EC50 was found to be 18.7 nM.
`CCOC(=O)C1=C(CN2CC(F)(F)[C@@H]3[C@H]2CN(C(=O)C(C)C)N3CCC(C)(C)C(=O)O)NC(c2nccs2)=N[C@H]1c1cccc(F)c1C` (single isomer, unassigned) [Compound 74]: the midpoint of cytotoxicity in data set [1], the CC50 at 6 days, lay at 16600 nM. In the data set with HBV, the EC50 turned out to be 38 nM.
In data set [1], `CCOC(=O)C1=C(CN2CC[C@]3(F)CN(CC(C)(C)C(=O)O)C(=O)[C@H]23)NC(c2nccs2)=N[C@H]1c1cccc(F)c1C` (single isomer, unassigned) [Compound 24A] yielded a CC50 at 6 days of 48500 nM. The EC50 with HBV amounted to 221 nM.
In data set [1], `CCOC(=O)C1=C(CN2CC(F)(F)[C@H]3[C@@H]2CCN3C[C@H](C)C(=O)O)NC(c2nccs2)=N[C@H]1c1ccc(F)cc1Cl` (single isomer, unassigned) [Compound 135B, 3-((cis)-4-((6-(2-chloro-4-fluorophenyl)-5-(ethoxycarbonyl)-2-(thiazol-2-yl)-3,6-dihydropyrimidin-4-yl)methyl)-6,6-difluorohexahydropyrrolo[3,2-b]pyrrol-1(2H)-yl)-2-methylpropanoic acid] yielded a CC50 at 6 days of 36300 nM. In the data set with HBV, the EC50 was 9.9 nM.
On the same counts, the results for `[2H]C([2H])(CC(C)(C)C(=O)O)N1CC[C@H]2[C@@H]1C(F)(F)CN2CC1=C(C(=O)OCC)[C@H](c2cccc(F)c2C)N=C(c2nccs2)N1` (single isomer, unassigned) [Compound 137] are 21800 nM and 1 nM.
